One may read the melting point as the temperature of the solid-liquid transition.

SMILES strings stand for the structures.

The values below come from a melting point compilation (Tetko et al.).

As for `CN(C)S(=O)(=O)c1ccsc1C(=O)O`, the melting point is 108 to 110 °C.
In the case of `O=C(O)CCN1C(=O)C(=O)c2ccc(F)cc21` it was 179 to 181 °C.
With `COc1ccc(C(=O)O)cn1` the figure was 172 to 174 °C.
With `CC(Oc1ccccc1Cc1ccccc1)C(=O)O` (stereo not drawn) the figure was 91 to 93 °C.
With `COC(=O)c1ccnc(C#N)c1`, the melting point lay in the range of 109 to 111 °C.
Consider `Cc1ccc2ncc(C(=O)O)c(O)c2c1`, for which the melting point fell in the range of 269 to 271 °C.
In turn, `CC(C)(C)CCS(=O)(=O)Cl` displayed a melting point of 33 to 35 °C.
With `CCOc1ccc(C2(C(=O)O)CC2)cc1` the figure was 118 to 120 °C; with `O=C1CCCCCN1CO`, 63 to 67 °C.
With `O=C(O)c1ccc(OCC(F)(F)C(F)F)nc1` the figure was 143 to 145 °C; with `Clc1nnc(-c2ccccn2)s1`, 105 to 107 °C.
In the case of `Cc1cc(N)n(-c2cc(C(F)(F)F)ccc2Cl)n1` it was 159 to 161 °C; in that of `Nc1ccc(N2CCCCC2)c2ccncc12`, 149 to 151 °C.
Molecule `O=C(O)c1ccccc1Oc1ccc(Cl)cc1Cl` came in with a melting point of 161 to 163 °C.
With `ClCc1coc(-c2cccs2)n1` the figure was 45 to 57 °C; with `Cn1c(=O)n(C)c2cc(S(=O)(=O)Cl)ccc21`, 176 to 178 °C; with `COC(=O)c1ccccc1CC(=O)O`, 139 to 141 °C.
With `CC1CCCCC1NC(=O)NC(=O)CCl` (stereo not drawn) the figure was 126 to 128 °C; with `COc1cc(C=O)cc(OC)c1OC(C)=O`, 115 to 117 °C.
The molecule `NC(=O)CCc1ccccc1` had a melting point of 100 to 102 °C.
In the case of `Cc1cc2nc(C)c(CCC(=O)O)c(C)n2n1` it was 260 to 262 °C.
As for `CC(C)c1nc(C#N)c(NN)o1`, the melting point is 103 to 105 °C.
In the case of `NS(=O)(=O)c1cccc(-n2cnnn2)c1` it was 181 to 183 °C; in that of `O=C(O)c1ccc2c(=O)n(-c3ccccc3F)c(=O)[nH]c2c1`, 343 to 345 °C.
With `Cn1c(=O)c2ccccc2n2cc3ccccc3c12` the figure was 164 to 166 °C.
With `O=C(O)c1cc(Br)c[nH]1` the figure was 169 to 171 °C; with `CC(=O)Nc1nc(C(=O)O)cs1`, 299 to 301 °C.
The molecule `CC1(c2ccco2)NC(=O)NC1=O` (stereo not drawn) gave a melting point of 179 to 181 °C.
With `O=C(O)CCCn1cc(Br)cn1` the figure was 94 to 96 °C; with `O=C(CCl)NCc1cccc(F)c1`, 53 to 55 °C; with `NC(=O)c1cncc(C(=O)O)c1`, 269 to 271 °C.
In the case of `O=C(O)CCOc1cccnc1` it was 174 to 176 °C; in that of `NCC(c1ccccc1)c1c[nH]c2ccccc12` (stereo not drawn), 123 to 125 °C.
In the case of `O=c1[nH]cnc2cc(Br)ccc12` it was 262 to 264 °C.
As for `O=C(O)c1cc(OCC(F)(F)F)c2ccccc2n1`, the melting point lay within 206 to 208 °C.
In the case of `Cc1cc(S(=O)(=O)Cl)ccc1F` it was 36 to 38 °C.
Consider `Cn1nc(-c2ccccn2)c(-c2ccc(F)cc2)c1N`, for which the melting point was 164 to 166 °C.
In the case of `Nc1cccc(S(=O)(=O)N2CCNC(=O)C2)c1` it was 189 to 191 °C; in that of `O=S1(=O)CCNC(c2ccccc2)C1` (stereo not drawn), 124 to 126 °C; in that of `NC(=S)Cc1cn2ccccc2n1`, 144 to 146 °C.
With `Cc1cc(N)ccc1N1C(=O)CCC1=O` the figure was 167 to 169 °C; with `Cc1ccc(C(N)=S)o1`, 149 to 151 °C.
In the case of `O=C1CCC2SCCSC12` (stereo not drawn) it was 81 to 83 °C; in that of `c1cc2c[nH]nc2cn1`, 104 to 106 °C; in that of `Cc1cc(C)c(S(N)(=O)=O)cc1C`, 179 to 181 °C.
The molecule `CC(C)(Cc1ccccc1)NC(=O)OC(C)(C)C` came in with a melting point of 51 to 53 °C.
`CCc1cccc2c(CCN)c[nH]c12` returned a melting point of 91 to 93 °C.
`O=C(O)CSCc1nc2sc3c(c2c(=O)[nH]1)CCC3` had a melting point of 198 to 200 °C.
With `Ic1ccc(OCc2ccc3ncccc3c2)cc1` the figure was 161 to 163 °C.
In the case of `CN(CC(=O)Nc1ccccc1C(F)(F)F)C(=O)CCl` it was 123 to 125 °C; in that of `CCCNC(=O)CC#N`, 53 to 55 °C.
With `Cc1nc(C2(NC(=O)CCl)CCCCC2)no1` the figure was 93 to 95 °C; with `Cc1ccc(C)n1-c1ccc(CN)cc1`, 61 to 63 °C.
Molecule `c1cncc(CNc2nc3ccccc3[nH]2)c1` showed a melting point of 177 to 179 °C.
In the case of `Cc1ccc(NS(=O)(=O)c2cc(N)ccc2Cl)c(C)c1` it was 57 to 59 °C.
In the case of `O=C(O)c1nnn(-c2cccc(F)c2)c1C1CC1` it was 149 to 151 °C.
Molecule `O=C(O)CSc1nc2cc(Cl)ccc2n1Cc1ccccc1` displayed a melting point of 155 to 157 °C.
Consider `CCOC(=O)c1ncn(-c2ccc(C)cc2)c1N`, for which the melting point was in the range of 246 to 248 °C.
In the case of `O=C(O)C=CC1CCCCC1` it was 54 to 56 °C; in that of `COc1ccc(C(=O)c2ccc(C)cc2)cc1`, 88 to 90 °C.
In the case of `CC1=C(C(=O)O)C(=O)OC1(C)C` it was 111 to 113 °C.
With `N#CCc1ccc(Oc2ncccn2)cc1` the figure was 70 to 72 °C.
In turn, `Nc1ccc(Sc2ccccn2)c(Cl)c1` had a melting point of 110 to 112 °C.
With `Cc1ccc(S(=O)(=O)N2CCCCC2)cc1C(=O)O` the figure was 197 to 199 °C; with `CC(=Cc1ccc(OCc2ccccc2)c(OCc2ccccc2)c1)C(=O)O`, 138 to 140 °C.
In turn, `Nc1nc(-c2c(F)cccc2F)n[nH]1` came in with a melting point of 218 to 220 °C.
For the molecule `CC(NC(=O)Oc1ccccc1)C(=O)O` (stereo not drawn), the melting point lay within 122 to 124 °C.
In the case of `Nc1nnn(Cc2ccccc2)n1` it was 183 to 185 °C; in that of `Cc1ccc(S(=O)(=O)N2CCCCC2)cc1NC(=O)CCl`, 107 to 109 °C.
In the case of `Nc1nc(N2CCOCC2)ns1` it was 187 to 189 °C; in that of `COc1ccc(C2C(C(=O)O)CCC(=O)N2c2ccc(C)cc2)cc1` (stereo not drawn), 201 to 203 °C.
For `CC(C)(C)n1[nH]c(=O)cc1N`, the melting point fell in the range of 223 to 225 °C.
In the case of `COc1cc(C(=O)CBr)ccc1OC(F)F` it was 45 to 46 °C.
In turn, `Cc1cc(NC(=O)C2CCCCC2C(=O)O)[nH]n1` (stereo not drawn) displayed a melting point of 114 to 116 °C.
With `COc1ccccc1CNC(=O)n1ccnc1` the figure was 128 to 130 °C; with `NC(=S)CC(=O)NCc1ccccc1`, 112 to 116 °C; with `O=C(c1ccc(Cl)c(Cl)c1)C1CC1`, 29 to 31 °C.
On to `Cn1nnnc1-c1cccc(S(=O)(=O)Cl)c1`, for which the melting point was 86 to 88 °C.
With `CN(C)S(=O)(=O)c1cccc(S(=O)(=O)Cl)c1` the figure was 97 to 99 °C; with `CCCOc1ccc(C=O)c(OCCC)c1`, 58 to 60 °C; with `COc1ccc(C2C(C(=O)O)CC(=O)N2C)cc1` (stereo not drawn), 183 to 185 °C.
In the case of `CCCNc1nnc(S)s1` it was 105 to 107 °C.
In the case of `Cc1cc(SCC(=O)O)nc2ccccc12` it was 117 to 119 °C; in that of `CC1CCN(CC(O)CN)CC1` (stereo not drawn), 63 to 65 °C; in that of `CC(C)CN1C(=O)C(=O)c2ccccc21`, 82 to 84 °C.
For the molecule `CCS(=O)(=O)c1nc2ccc(N)cc2s1`, the melting point fell in the range of 90 to 92 °C.
In the case of `COc1cccc(CSCC(N)C(=O)O)c1` (stereo not drawn) it was 194 to 196 °C; in that of `Nc1cccc2[nH]ncc12`, 145 to 147 °C; in that of `CCOC(=O)c1c(C)n(CC)c2ccc(O)cc12`, 183 to 185 °C.
In the case of `O=C(O)CCc1ncc(-c2ccc(F)cc2)o1` it was 144 to 146 °C; in that of `NC(=O)C(Cl)c1cccc(Br)c1` (stereo not drawn), 109 to 111 °C; in that of `CCC(Br)C(N)=O` (stereo not drawn), 108 to 110 °C.
In the case of `CC(C)NS(=O)(=O)c1ccc(Cl)c(C(=O)O)c1Cl` it was 218 to 220 °C; in that of `Nc1ncc(C(=O)O)cc1Br`, 299 to 301 °C; in that of `CS(=O)(=O)N1CCc2c(N)cccc2C1`, 155 to 157 °C.
`CC(=O)c1c(O)cc(F)cc1F` had a melting point of 45 to 47 °C.
With `O=C(O)c1c[nH]nc1-c1cccc(Cl)c1` the figure was 251 to 253 °C.
In the case of `Cc1nnc(S)n1C1CCCC(C)C1` (stereo not drawn) it was 129 to 131 °C; in that of `O=C(O)c1csc(-c2ccccc2Cl)n1`, 192 to 194 °C; in that of `CNC(=O)COc1ccc(N)c(F)c1`, 81 to 83 °C.
With `COC(=O)c1ccc(N)c(OCC(F)(F)F)c1` the figure was 117 to 119 °C; with `Nc1nnc(-c2ccccn2)s1`, 260 to 262 °C; with `O=c1cc(Cl)nc2ccc(Cl)cn12`, 219 to 221 °C.
Molecule `Cc1ccc(C(=O)NCC(=O)O)s1` showed a melting point of 66 to 68 °C.
With `CSCCC(NS(=O)(=O)c1ccccc1)C(=O)O` (stereo not drawn) the figure was 103 to 105 °C; with `Cc1[nH][nH]c(=O)c1CCO`, 183 to 185 °C; with `O=C1CCOc2ccc(Br)cc21`, 73 to 75 °C.
With `Cn1cc([N+](=O)[O-])cc1C(=O)NCC(=O)O` the figure was 130 to 132 °C; with `NC(=O)c1ccc(N)cn1`, 169 to 171 °C.
`Nc1ccc(Oc2ccncc2)c(Cl)c1` showed a melting point of 129 to 131 °C.
With `ClCc1nnc(-c2cccc(Cl)c2)o1` the figure was 76 to 78 °C; with `Cc1cccc(C(=O)N2CCSCC2)c1O`, 88 to 90 °C.
In the case of `CC(C)(C)c1ncsc1C(=O)O` it was 185 to 187 °C; in that of `Nc1nc(CCl)nc2ccccc12`, 163 to 165 °C.
In the case of `OC(C1CCCCN1)C(F)(F)F` (stereo not drawn) it was 94 to 96 °C; in that of `Ic1ccc(OCc2ccncc2)cc1`, 152 to 154 °C; in that of `CCCc1noc2nc(-c3ccco3)cc(C(=O)O)c12`, 204 to 206 °C.
`Cc1ccccc1COc1cccc(CC(=O)O)c1`: the melting point was in the range of 52 to 54 °C.
In the case of `Cc1nn(C)c(C)c1CCC(=O)O` it was 137 to 139 °C; in that of `Cc1ccc2nc(CCl)cc(=O)n2c1`, 136 to 138 °C.
With `O=C(O)CCc1nc2ccccc2oc1=O` the figure was 167 to 169 °C; with `O=C(O)CSCCc1ccccc1`, 56 to 58 °C.
As to `O=C(O)c1c(O)cc(F)cc1F`, the melting point was 182 to 184 °C.
